The values below come from patent US7943774B2 (priority 2008, dated 2011).

One data set in a line: log P (pH2.3). It is filed as physicochemical. The note with it: method [a]: HPLC, acidic range, pH 2.3, 0.1% aqueous phosphoric acid and acetonitrile.
`Cc1cc(C)n(CC(=O)N2CCC(c3nc(CCc4ccccc4)cs3)CC2)n1` [Example I-54]: the log p is 2.86^[a].

The same data set, now with this note: method [b]: LC-MS, acidic range, pH 2.7, 0.1% aqueous formic acid and acetonitrile.
For `O=C(Cc1cccc(Cl)c1)N1CCC(c2nc(CCc3ccccc3)cs2)CC1` [Example I-57], the log p was 4.1^[b].

`Cc1cc(C(F)(F)F)nn1CC(=O)N1CCC(c2nc(C#Cc3ccc(Cl)cc3)cs2)CC1` [Example I-102]: the log p is 4.37^[b].

Turning to `Cc1c(Cl)c(C(F)(F)F)nn1CC(=O)N1CCC(c2nc(/C=C\c3cccc(C(F)(F)F)c3)cs2)CC1` [Example I-17], the log p is 5.03^[b].

Consider `O=C(Cn1ccc(C(F)(F)F)n1)N1CCC(c2nc(/C=C\c3cccc(C(F)(F)F)c3)cs2)CC1` [Example I-16], for which the log p is 4.3^[b].

On to `Cc1cc(C(F)(F)F)nn1CC(=O)N1CCC(c2nc(C#Cc3ccccc3)cs2)CC1` [Example I-99], for which the log p is 3.82^[b].

As for `COc1ccc(/C=C\c2csc(C3CCN(C(=O)Cn4nc(C(F)(F)F)c(Cl)c4C)CC3)n2)cc1` [Example I-14], the log p was 4.46^[b].

As to `COc1ccc(C#Cc2csc(C3CCN(C(=O)Cn4nc(C(F)(F)F)cc4C)CC3)n2)c(OC)c1` [Example I-104], the log p is 3.67^[b].

Regarding `Cc1cc(C(F)(F)F)nn1CC(=O)N1CCC(c2nc(CCc3c(F)cccc3F)cs2)CC1` [Example I-128], the log p was 3.9^[b].

As to `O=C(Cc1c(F)ccc(F)c1F)N1CCC(c2nc(C#Cc3cccc4ccccc34)cs2)CC1` [Example I-97], the log p is 4.71^[b].

On to `O=C(Cn1ccc(C(F)(F)F)n1)N1CCC(c2nc(/C=C\c3ccc(Cl)cc3)cs2)CC1` [Example I-10], for which the log p was 4.2^[b ].

On to `Cc1cc(C)n(CC(=O)N2CCC(c3nc(/C=C\c4cccc5ccccc45)cs3)CC2)n1` [Example I-76], for which the log p is 3.73^[b].

Regarding `O=C(c1cccc(C(F)(F)F)c1)N1CCC(c2nc(CCc3ccccc3)cs2)CC1` [Example I-62], the log p is 4.23^[b].

Consider `COc1ccc(OC)c(C#Cc2csc(C3CCN(C(=O)Cn4nc(C(F)(F)F)cc4C)CC3)n2)c1` [Example I-106], for which the log p is 3.65^[b].

With `Cc1c(Cl)c(C(F)(F)F)nn1CC(=O)N1CCC(c2nc(CCc3ccccc3)cs2)CC1` [Example I-60], the log p was 4.34^[b].

In the case of `Cc1cc(C(F)(F)F)nn1CC(=O)N1CCC(c2nc(/C=C/c3ccccc3)cs2)CC1` [Example I-26], the log p was 3.99^[b].

For the molecule `O=C(Cn1ccc(C(F)(F)F)n1)N1CCC(c2nc(/C=C\c3ccccc3)cs2)CC1` [Example I-7], the log p is 3.72^[b].

On to `CCc1cc(C(F)(F)F)nn1CC(=O)N1CCC(c2nc(CCc3cccc4ccccc34)cs2)CC1` [Example I-108], for which the log p was 4.65^[b].

For `CC(C)(C)c1cc(C(F)(F)F)n(CC(=O)N2CCC(c3nc(CCc4cccc5ccccc45)cs3)CC2)n1` [Example I-110], the log p is 5.36^[b].

Consider `O=C(Cn1nc(C(F)(F)F)cc1C(F)(F)F)N1CCC(c2nc(CCc3ccccc3)cs2)CC1` [Example I-59], for which the log p was 4.45^[b].

For the molecule `Cc1ccccc1CCc1csc(C2CCN(C(=O)Cn3nc(C(F)(F)F)cc3C)CC2)n1` [Example I-126], the log p is 4.08^[b].

As to `Cc1cc(C(F)(F)F)nn1CC(=O)N1CCC(c2nc(CCC3CCCCC3)cs2)CC1` [Example I-132], the log p was 5.01^[b].

For the molecule `Cc1cc(C)n(CC(=O)N2CCC(c3nc(/C=C/c4cccc5ccccc45)cs3)CC2)n1` [Example I-77], the log p is 3.58^[b].

For `Cc1c(Cl)c(C(F)(F)F)nn1CC(=O)N1CCC(c2nc(/C=C\c3ccc(Cl)cc3)cs2)CC1` [Example I-11], the log p is 4.92^[b].

In the case of `O=C(Cn1nc(C(F)F)cc1C(F)F)N1CCC(c2nc(CCc3cccc4ccccc34)cs2)CC1` [Example I-109], the log p was 4.25^[b].

Regarding `CC(C)(C)c1cc(C(F)(F)F)n(CC(=O)N2CCC(c3nc(C#Cc4cccc5ccccc45)cs3)CC2)n1` [Example I-118], the log p is 5.48^[b].

In the case of `CCc1cc(CC)n(CC(=O)N2CCC(c3nc(C#Cc4cccc5ccccc45)cs3)CC2)n1` [Example I-115], the log p was 4.2^[b].

With `Cc1cc(C(F)(F)F)nn1CC(=O)N1CCC(c2nc(C#Cc3ccc(Cl)cc3Cl)cs2)CC1` [Example I-105], the log p is 4.72^[b].

With `O=C(Cn1ccc(C(F)(F)F)n1)N1CCC(c2nc(/C=C\c3ccc4ccccc4c3)cs2)CC1` [Example I-21], the log p is 4.35^[b].

Consider `Cc1c(Cl)c(C(F)(F)F)nn1CC(=O)N1CCC(c2nc(/C=C\c3ccc4ccccc4c3)cs2)CC1` [Example I-22], for which the log p was 5.08^[b].

For the molecule `O=C(Cn1cccn1)N1CCC(c2nc(CCc3ccccc3)cs2)CC1` [Example I-69], the log p is 2.56^[b].

`O=C(Cn1nc(C(F)(F)F)cc1C(F)(F)F)N1CCC(c2nc(C#Cc3cccc4ccccc34)cs2)CC1` [Example I-114]: the log p was 5.03^[b].

With `Cc1cc(C(F)(F)F)nn1CC(=O)N1CCC(c2nc(/C=C\c3cccc(C(F)(F)F)c3)cs2)CC1` [Example I-15], the log p was 4.51^[b].

Still in this data set, the particulars now being: method [b]: LC-MS, acidic range, pH 2.7, 0.1% aqueous formic acid and acetonitrile; HPLC on reversed-phase C 18.
Turning to `Cc1cccnc1C#Cc1csc(C2CCN(C(=O)Cc3cc(Cl)ccc3Cl)CC2)n1` [Example I-228], the log p is 3.35^[b].

For the molecule `Cc1noc(C)c1C#Cc1csc(C2CCN(C(=O)Cn3nc(C(F)F)cc3C(F)F)CC2)n1` [Example I-223], the log p was 3.09^[b].

On to `Cc1cc(C(F)(F)F)nn1CC(=O)N1CCC(c2nc(C#Cc3ccccc3Br)cs2)CC1` [Example I-207], for which the log p is 4.16^[b].

On to `O=C(Cn1nc(C(F)(F)F)cc1C(F)(F)F)N1CCC(c2nc(C=Cc3ccccc3Br)cs2)CC1` (mixture of isomers) [Example I-175], for which the log p is 4.99^[b].

On to `Cc1ccccc1C#Cc1csc(C2CCN(C(=O)Cc3cc(Cl)ccc3Cl)CC2)n1` [Example I-224], for which the log p is 4.91^[b].

As to `Cc1cccnc1C#Cc1csc(C2CCN(C(=O)Cn3nc(C(F)(F)F)cc3C)CC2)n1` [Example I-210], the log p is 2.72^[b].

As to `Cc1ccc(C)c(CC(=O)N2CCC(c3nc(/C=C\c4ccccc4C)cs3)CC2)c1` [Example I-237], the log p was 4.86^[b].

Turning to `Cc1ccc(C)c(CC(=O)N2CCC(c3nc(CCc4ccccc4C)cs3)CC2)c1` [Example I-158], the log p was 4.67^[b].

As to `Cc1ccc(C)c(CC(=O)N2CCC(c3nc(C#Cc4c(F)cccc4F)cs3)CC2)c1` [Example I-232], the log p is 4.36^[b].

`Cc1ccccc1C#Cc1csc(C2CCN(C(=O)Cn3nc(C(F)(F)F)cc3C(F)(F)F)CC2)n1` [Example I-212]: the log p is 4.73^[b].

`O=C(Cn1nc(C(F)(F)F)cc1C(F)(F)F)N1CCC(c2nc(CCC3CCCCC3)cs2)CC1` [Example I-140]: the log p is 5.76^[b].

For the molecule `C#Cc1csc(C2CCN(C(=O)Cn3nc(C(F)F)cc3C(F)F)CC2)n1` [Example I-239], the log p was 2.45^[b].

Turning to `C#Cc1csc(C2CCN(C(=O)Cc3cc(C)ccc3C)CC2)n1` [Example I-238], the log p was 2.93^[b];.

For `Cc1ccc(C)c(CC(=O)N2CCC(c3nc(C#Cc4c(C)noc4C)cs3)CC2)c1` [Example I-235], the log p was 3.67^[b].

On to `O=C(Cc1cc(Cl)ccc1Cl)N1CCC(c2nc(C#Cc3ccccc3Br)cs2)CC1` [Example I-225], for which the log p was 4.91^[b].

On to `O=C(Cn1nc(C(F)F)cc1C(F)F)N1CCC(c2nc(CCC3CCCCC3)cs2)CC1` [Example I-148], for which the log p was 4.87^[b].

As for `O=C(Cn1nc(C(F)(F)F)cc1C(F)(F)F)N1CCC(c2nc(C=Cc3c(F)cccc3F)cs2)CC1` (mixture of isomers) [Example I-176], the log p was 4.88^[b].

On to `O=C(Cn1nc(C(F)(F)F)cc1C(F)(F)F)N1CCC(c2nc(C#Cc3c(F)cccc3F)cs2)CC1` [Example I-214], for which the log p is 4.4^[b].

The data set is the same for the next values; noted with them: method [c]: LC-MS, neutral range, pH 7.8, 0.001 molar aqueous ammonium bicarbonate and acetonitrile.
`Cc1cc(C(F)(F)F)nn1CC(=O)N1CCC(c2nc(CCc3c(F)cccc3F)cs2)CC1` [Example I-128]: the log p is 3.97^[c],.

Turning to `Cc1ccccc1CCc1csc(C2CCN(C(=O)Cn3nc(C(F)(F)F)cc3C)CC2)n1` [Example I-126], the log p is 4.16^[c];.

For `Cc1cc(C)n(CC(=O)N2CCC(c3nc(/C=C/CC(C)c4ccccc4)cs3)CC2)n1` (stereo not shown) [Example I-85], the log p was 3.83^[c].

On to `Cc1cc(C)n(CC(=O)N2CCC(c3nc(CCc4cccc5ccccc45)cs3)CC2)n1` [Example I-79], for which the log p is 3.39^[c].

Still in this data set, the particulars now being: method [c]: LC-MS, neutral range, pH 7.8, 0.001 molar aqueous ammonium bicarbonate solution and acetonitrile; HPLC on reversed-phase C 18.
`Cc1cccnc1C#Cc1csc(C2CCN(C(=O)Cc3cc(Cl)ccc3Cl)CC2)n1` [Example I-228]: the log p was 3.55^[c].

With `Cc1cc(C(F)(F)F)nn1CC(=O)N1CCC(c2nc(C#Cc3ccccc3Br)cs2)CC1` [Example I-207], the log p was 4.19^[c];.

For `Cc1cccnc1C#Cc1csc(C2CCN(C(=O)Cn3nc(C(F)(F)F)cc3C)CC2)n1` [Example I-210], the log p is 2.95^[c];.

Take `Cc1ccc(C)c(CC(=O)N2CCC(c3nc(/C=C\c4ccccc4C)cs3)CC2)c1` [Example I-237]: the log p is 4.95^[c];.

Take `Cc1ccc(C)c(CC(=O)N2CCC(c3nc(CCc4ccccc4C)cs3)CC2)c1` [Example I-158]: the log p is 4.77^[c];.

In the case of `Cc1ccc(C)c(CC(=O)N2CCC(c3nc(C#Cc4c(F)cccc4F)cs3)CC2)c1` [Example I-232], the log p is 4.39^[c];.

Consider `C#Cc1csc(C2CCN(C(=O)Cc3cc(C)ccc3C)CC2)n1` [Example I-238], for which the log p is 2.95^[c].

`Cc1ccc(C)c(CC(=O)N2CCC(c3nc(C#Cc4c(C)noc4C)cs3)CC2)c1` [Example I-235]: the log p was 3.71^[c];.

The data set is the same for the next values; noted with them: pH 2.3; pH2.3; read-out: log P.
Consider `Brc1sc(C2CCNCC2)nc1CCc1ccccc1` [II-3, 4-[5-Bromo-4-(2-phenylethyl)-1,3-thiazol-2-yl]piperidine], for which the log p is 1.72.

Staying with this data set, now noted: reversed-phase HPLC column (C18); method [b]: LC-MS, acidic range, pH 2.7, 0.1% aqueous formic acid and acetonitrile.
On to `O=C(c1cc(C(F)(F)F)ccc1C(F)(F)F)N1CCC(c2nc(CCc3ccccc3)cs2)CC1` [Example I-61, [2,5-Bis(trifluoromethyl)phenyl]{4-[4-(2-phenylethyl)-1,3-thiazol-2-yl]piperidin-1-yl}methanone], for which the chromatographic logP came out at 4.67.

Turning to `O=C(Cc1cc(C(F)(F)F)ccc1Cl)N1CCC(c2nc(CCc3ccccc3)cs2)CC1` [Example I-67, 2-[2-Chloro-5-(trifluoromethyl)phenyl]-1-{4-[4-(2-phenylethyl)-1,3-thiazol-2-yl]piperidin-1-yl}ethanone], the chromatographic logP worked out at 4.73.

`COc1ccc(CCC(=O)N2CCC(c3nc(CCc4ccccc4)cs3)CC2)cc1OC` [Example I-66, 3-(3,4-Dimethoxyphenyl)-1-{4-[4-(2-phenylethyl)-1,3-thiazol-2-yl]piperidin-1-yl}propan-1-one] had a chromatographic logP of 3.43.

Broadly, the chromatographic logP is lipophilicity estimated from chromatographic retention. Low values mean a more hydrophilic compound, high ones a more lipophilic compound.
